Key:
[1] = target: T1, Human immunodeficiency virus type 1 integrase (Human immunodeficiency virus 1, UniProt Q7ZJM1); test: Inhibitory activity against HIV integrase in the strand transfer step
[2] = target: T1, Human immunodeficiency virus type 1 integrase; test: Inhibitory activity against HIV integrase in the 3' processing step

T1 sequence (Q7ZJM1 whole entry): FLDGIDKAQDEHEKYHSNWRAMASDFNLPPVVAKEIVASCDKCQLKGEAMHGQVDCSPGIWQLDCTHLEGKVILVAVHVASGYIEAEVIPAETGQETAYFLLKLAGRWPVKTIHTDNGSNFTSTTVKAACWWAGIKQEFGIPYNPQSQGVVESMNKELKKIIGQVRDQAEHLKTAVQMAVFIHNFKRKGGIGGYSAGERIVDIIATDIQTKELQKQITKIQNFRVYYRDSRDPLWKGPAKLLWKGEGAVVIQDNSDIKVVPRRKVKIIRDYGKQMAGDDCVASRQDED

Structure (SMILES)	IC50 [1] [µM]	IC50 [2] [µM]
Nc1ncnc2cc3c(cc12)ncn3C1COC(COP(=O)(O)O)C1 (stereo not given)	68	–
Nc1ncnc2c1ccc1ncn(C3COC(COP(=O)(O)O)C3)c12 (stereo not given)	53	75
Nc1ncnc2cc3c(cc12)ncn3C1CCC(COP(=O)(O)O)O1 (stereo not given)	550	750
